# According to the supplement of paper PMC11208160:
# Assay: recombinant barcode read abundance after kanamycin selection (control-corrected) (log10(CPM+1)); higher = more efficient recombination; sequences stand for … in AGTGCAGAGAAAATCGGCCAGTTTTCTCTGCCTGCAGTCCGCATGCCGT…AGATTTATGCAGCGGACTGCCTTTCTCCCAAAGTGATAAACCGGACAGTATCATGGACCGGTTTTCCCGGTAATCCGTATTTGCAAGGTTGGTTTCACT; site = the 11-nt target
# How it was run: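 Recombination efficiency in this pooled E. coli screen uses counts per million of barcodes at recombinant junctions, averaged and corrected against the control. The reported form is log10(CPM+1). Two replicates were plated on chloramphenicol/ampicillin LB agar as control and two on chloramphenicol/ampicillin/kanamycin with 0.1 mM IPTG.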
# 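Also: IS621 recombinase and bridge RNA in Escherichia coli cells.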
row,Sequence,recombinant barcode read abundance (log10)
1,TAGAAGGCTTGGGTTCTAACCTGTTGCTT (site TAGAAGGCTAC),0.0392
2,TAGAAGGCTTGGGTTCTAACCTGTTGCTT (site TAGAAGGCTAG),0.0656
3,TAGAAGGCTTGGGTTCTAACCTGTTGCTT (site TAGAAGGCTAT),0.28
4,TAGAATCCTTGGGTTCTAACCTGTTGCAA (site TAGAATCCTAT),0.15
5,TAGAATCCTTGGGTTCTAACCTGTTGCAA (site TAGAATCCTCT),0.123
6,TAGAATCCTTGGGTTCTAACCTGTTGCAA (site TAGAATCCTGT),0.116
7,TAGAATCCTTGGGTTCTAACCTGTTGCAA (site TAGAATCCTTT),0.147
8,TAGACGGCTTGGGTTCTAACCTGTTGCAT (site GGATACACTCG),0.191
9,TAGACGGCTTGGGTTCTAACCTGTTGCAT (site TAGACGGCTAT),0.463
10,TAGAGAGCTTGGGTTCTAACCTGTTGCAG (site TAGAGAGCTCT),1.94
11,TAGAGAGCTTGGGTTCTAACCTGTTGCAG (site TAGGGAGCTAT),0.265
12,TAGAGCCCTTGGGTTCTAACCTGTTGCGG (site TAGAGCCCTCC),0.953
13,TAGAGCCCTTGGGTTCTAACCTGTTGCGG (site TCGAGGCCTCC),0.0902
14,TAGATCCCTTGGGTTCTAACCTGTTGCTT (site TAGAACCCTAA),0.245
15,TAGATCCCTTGGGTTCTAACCTGTTGCTT (site TAGATCCCTAA),0.528
16,TAGCACCCTTGGGTTCTAACCTGTTGCCG (site TAGCACCCTAG),0.287
17,TAGCACCCTTGGGTTCTAACCTGTTGCCG (site TAGCACCCTCG),1.19
18,TAGCACCCTTGGGTTCTAACCTGTTGCCG (site TAGCACCCTGG),0.239

row,Sequence,recombinant barcode read abundance (log10)
1,TAGCACCCTTGGGTTCTAACCTGTTGCCG (site TAGCACCCTTG),0.356
2,TAGCAGTCTTGGGTTCTAACCTGTTGCGC (site CGCGCCACTAG),0.251
3,TAGCAGTCTTGGGTTCTAACCTGTTGCGC (site TAGCAGTCTGC),2.05
4,TAGCATGCTTGGGTTCTAACCTGTTGCAA (site TAGCATGCTAT),0.382
5,TAGCATGCTTGGGTTCTAACCTGTTGCAA (site TAGCATGCTCT),0.597
6,TAGCATGCTTGGGTTCTAACCTGTTGCAA (site TAGCATGCTGT),0.115
7,TAGCATGCTTGGGTTCTAACCTGTTGCAA (site TAGCATGCTTT),0.324
8,TAGCATGCTTGGGTTCTAACCTGTTGCAC (site TAGCATGCTAT),0.677
9,TAGCATGCTTGGGTTCTAACCTGTTGCAC (site TAGCATGCTCT),0.203
10,TAGCATGCTTGGGTTCTAACCTGTTGCAC (site TAGCATGCTGT),0.978
11,TAGCATGCTTGGGTTCTAACCTGTTGCAC (site TAGCATGCTTT),0.306
12,TAGCCTTCTTGGGTTCTAACCTGTTGCTA (site TAGCCTTCTCA),0.0251
13,TAGCCTTCTTGGGTTCTAACCTGTTGCTA (site TAGCCTTCTTA),0.129
14,TAGCGGCCTTGGGTTCTAACCTGTTGCGG (site CCAGTATCTAT),0.453
15,TAGCGGCCTTGGGTTCTAACCTGTTGCGG (site TAGCGGCCTCC),2.23
16,TAGGAAACTTGGGTTCTAACCTGTTGCGT (site TAGGAAACTAC),2.98
17,TAGGAAACTTGGGTTCTAACCTGTTGCGT (site TAGGACACTAC),0.0791
18,TAGGAAACTTGGGTTCTAACCTGTTGCGT (site TAGGAGACTAC),0.781
